Assay results as given in US8188094B2, “Inhibitors of glutaminyl cyclase” (Probiodrug AG, priority 2007, dated 2012).

Target: glutaminyl cyclase (QC) (Homo sapiens, UniProt Q16769)
Experiment: QC inhibitor assay (fluorometric / spectrophotometric QC activity assays)
Assay type: biochemical
Details: QC inhibition, 30° C.; for Ki: progress curves fitted to the general equation for competitive inhibition
Procedure: All measurements were performed with a BioAssay Reader HTS-7000Plus for microplates (Perkin Elmer) at 30° C. QC activity was evaluated fluorometrically using H-Gln-βNA. The samples consisted of 0.2 mM fluorogenic substrate, 0.25 U pyroglutamyl aminopeptidase (Unizyme, Hørsholm, Denmark) in 0.2 M Tris/HCl, pH 8.0 containing 20 mM EDTA and an appropriately diluted aliquot of QC in a final volume of 250 μl. Excitation/emission wavelengths were 320/410 nm. The assay reactions were initiated by addition of glutaminyl cyclase. QC activity was determined from a standard curve of β-naphthylamine under assay conditions. One unit is defined as the amount of QC catalyzing the formation of 1 μmol pGlu-βNA from H-Gln-βNA per minute under the described conditions.
In a second fluorometric assay, QC was activity determined using H-Gln-AMC as substrate. Reactions were carried out at 30° C. utilizing the NOVOStar reader for microplates (BMG labtechnologies). The samples consisted of varying concentrations of the fluorogenic substrate, 0.1 U pyroglutamyl aminopeptidase (Qiagen) in 0.05 M Tris/HCl, pH 8.0 containing 5 mM EDTA and an appropriately diluted aliquot of QC in a final volume of 250 μl. Excitation/emission wavelengths were 380/460 nm. The assay reactions were initiated by addition of glutaminyl cyclase. QC activity was determined from a standard curve of 7-amino-4-methylcoumarin under assay conditions. The kinetic data were evaluated using GraFit software.
This novel assay was used to determine the kinetic parameters for most of the QC substrates. QC activity was analyzed spectrophotometrically using a continuous method, that was derived by adapting a previous discontinuous assay (Bateman, R. C. J. 1989 J Neurosci Methods 30, 23-28) utilizing glutamate dehydrogenase as auxiliary enzyme. Samples consisted of the respective QC substrate, 0.3 mM NADH, 14 mM α-Ketoglutaric acid and 30 U/ml glutamate dehydrogenase in a final volume of 250 μl. Reactions were started by addition of QC and persued by monitoring of the decrease in absorbance at 340 nm for 8-15 min.
The initial velocities were evaluated and the enzymatic activity was determined from a standard curve of ammonia under assay conditions. All samples were measured at 30° C., using either the SPECTRAFluor Plus or the Sunrise (both from TECAN) reader for microplates. Kinetic data was evaluated using GraFit software.
For inhibitor testing, the sample composition was the same as described above, except of the putative inhibitory compound added. For a rapid test of QC-inhibition, samples contained 4 mM of the respective inhibitor and a substrate concentration at 1 KM. For detailed investigations of the inhibition and determination of Ki-values, influence of the inhibitor on the auxiliary enzymes was investigated first. In every case, there was no influence on either enzyme detected, thus enabling the reliable determination of the QC inhibition. The inhibitory constant was evaluated by fitting the set of progress curves to the general equation for competitive inhibition using GraFit software.

Chain of glutaminyl cyclase (QC) (Q16769 29-361): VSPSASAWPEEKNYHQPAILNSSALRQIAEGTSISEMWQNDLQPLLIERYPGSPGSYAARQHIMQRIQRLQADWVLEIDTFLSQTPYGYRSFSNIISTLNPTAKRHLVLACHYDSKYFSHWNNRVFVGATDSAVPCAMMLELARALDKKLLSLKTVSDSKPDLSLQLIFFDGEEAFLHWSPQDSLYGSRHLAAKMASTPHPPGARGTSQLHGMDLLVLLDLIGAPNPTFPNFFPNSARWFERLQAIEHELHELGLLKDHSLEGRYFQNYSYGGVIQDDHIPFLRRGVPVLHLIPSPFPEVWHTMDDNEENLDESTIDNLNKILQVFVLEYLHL

Cc1cc(NCCCn2ccnc2)nc(-c2ccccc2)n1 [Example 1, N-(3-(1H-imidazol-1-yl)propyl)-6-methyl-2-phenylpyrimidin-4-amine]
IC50: 47.8 µM
Ki: 18 µM

c1ccc(-c2cc(NCCCn3ccnc3)nc(-c3ccccc3)n2)cc1 [Example 2, N-(3-(1H-imidazol-1-yl)propyl)-2,6-diphenylpyrimidin-4-amin]
IC50: 49.8 µM
Ki: 3.9 µM

Cc1nc(NCCCn2ccnc2)cc(-c2ccccc2)n1 [Example 3, N-(3-(1H-imidazol-1-yl)propyl)-2-methyl-6-phenylpyrimidin-4-amine]
IC50: 28.1 µM
Ki: 4.6 µM

Cc1cc(NCCCn2ccnc2)nc(C)n1 [Example 4, N-(3-(1H-imidazol-1-yl)propyl)-2,6-dimethylpyrimidin-4-amine]
IC50: 30.3 µM
Ki: 9.31 µM

Cc1ccc(-c2cc(NCCCn3ccnc3)nc(C)n2)cc1 [Example 5, N-(3-(1H-imidazol-1-yl)propyl)-2-methyl-6-p-tolylpyrimidin-4-amine]
IC50: 13.3 µM
Ki: 3.52 µM

Cc1nc(NCCCn2ccnc2)cc(-c2cc(C(F)(F)F)cc(C(F)(F)F)c2)n1 [Example 6, N-(3-(1H-imidazol-1-yl)propyl)-6-(3,5-bis(trifluoromethyl)phenyl)-2-methyl-pyrimidin-4-amine]
IC50: 14.7 µM
Ki: 4.69 µM

FC(F)(F)c1cc(-c2cc(NCCCn3ccnc3)nc(-c3ccccc3)n2)cc(C(F)(F)F)c1 [Example 7, N-(3-(1H-imidazol-1-yl)propyl)-6-(3,5-bis(trifluoromethyl)phenyl)-2-phenyl-pyrimidin-4-amine]
IC50: 91.1 µM

COc1cc(-c2cc(NCCCn3ccnc3)nc(-c3ccccc3)n2)cc(OC)c1OC [Example 8, N-(3-(1H-imidazol-1-yl)propyl)-6-(3,4,5-trimethoxyphenyl)-2-phenylpyrimidin-4-amine]
IC50: 7.08 µM
Ki: 1.16 µM

Cc1ccc(-c2cc(NCCCn3ccnc3)nc(-c3ccccc3)n2)cc1 [Example 9, N-(3-(1H-imidazol-1-yl)propyl)-2-phenyl-6-p-tolylpyrimidin-4-amine]
IC50: 14.4 µM

O=[N+]([O-])c1ccc(-c2cc(NCCCn3ccnc3)nc(-c3ccccc3)n2)cc1 [Example 10, N-(3-(1H-imidazol-1-yl)propyl)-6-(4-nitrophenyl)-2-phenylpyrimidin-4-amine]
IC50: 12.4 µM

COc1ccccc1-c1cc(NCCCn2ccnc2)nc(-c2ccccc2)n1 [Example 11, N-(3-(1H-imidazol-1-yl)propyl)-6-(2-methoxyphenyl)-2-phenylpyrimidin-4-amine]
IC50: 22.6 µM

COc1cccc(-c2cc(NCCCn3ccnc3)nc(-c3ccccc3)n2)c1 [Example 12, N-(3-(1H-imidazol-1-yl)propyl)-6-(3-methoxyphenyl)-2-phenylpyrimidin-4-amine]
IC50: 9.37 µM
Ki: 3.75 µM

c1ccc(-c2nc(NCCCn3ccnc3)cc(-c3ccoc3)n2)cc1 [Example 13, N-(3-(1H-imidazol-1-yl)propyl)-6-(furan-3-yl)-2-phenylpyrimidin-4-amine]
IC50: 40.3 µM
Ki: 14.9 µM

c1ccc(-c2nc(NCCCn3ccnc3)cc(C34CC5CC(CC(C5)C3)C4)n2)cc1 [Example 14, N-(3-(1H-imidazol-1-yl)propyl)-6-(adamant-1-yl)-2-phenylpyrimidin-4-amine]
IC50: 116 µM

c1cc(-c2nc(NCCCn3ccnc3)cc(-c3ccoc3)n2)ccn1 [Example 17, N-(3-(1H-imidazol-1-yl)propyl)-6-(furan-3-yl)-2-(pyridin-4-yl)pyrimidin-4-amine]
IC50: 27.3 µM
Ki: 3.7 µM

FC(F)(F)c1cc(NCCCn2ccnc2)nc(-c2ccncc2)n1 [Example 18, N-(3-(1H-imidazol-1-yl)propyl)-6-(trifluoromethyl)-2-(pyridin-4-yl)pyrimidin-4-amine]
IC50: 36.8 µM
Ki: 4.19 µM

COc1cccc(-c2cc(NCCCn3ccnc3)nc(C)n2)c1 [Example 19, N-(3-(1H-imidazol-1-yl)propyl)-6-(3-methoxyphenyl)-2-methylpyrimidin-4-amine]
IC50: 20.9 µM
Ki: 2.7 µM

COc1cc(-c2cc(NCCCn3ccnc3)nc(C)n2)cc(OC)c1OC [Example 20, N-(3-(1H-imidazol-1-yl)propyl)-6-(3,4,5-trimethoxy-phenyl)-2-methyl-pyrimidin-4-amine]
IC50: 6.43 µM
Ki: 0.72 µM

COc1ccc(-c2cc(NCCCn3ccnc3)nc(C)n2)cc1 [Example 21, N-(3-(1H-imidazol-1-yl)propyl)-6-(4-methoxyphenyl)-2-methylpyrimidin-4-amine]
IC50: 18.5 µM
Ki: 2.26 µM

COc1ccccc1-c1cc(NCCCn2ccnc2)nc(C)n1 [Example 22, N-(3-(1H-imidazol-1-yl)propyl)-6-(2-methoxyphenyl)-2-methylpyrimidin-4-amine]
IC50: 19.3 µM
Ki: 2.16 µM

O=[N+]([O-])c1ccc(-c2cc(NCCCn3ccnc3)nc(-c3ccncc3)n2)cc1 [Example 24, N-(3-(1H-imidazol-1-yl)propyl)-6-(4-nitrophenyl)-2-(pyridin-4-yl)pyrimidin-4-amine]
IC50: 16.9 µM

Cc1ccc(-c2cc(NCCCn3ccnc3)nc(-c3ccncc3)n2)cc1 [Example 25, N-(3-(1H-imidazol-1-yl)propyl)-2-(pyridin-4-yl)-6-p-tolylpyrimidin-4-amine]
IC50: 30.6 µM

COc1ccccc1-c1cc(NCCCn2ccnc2)nc(-c2ccncc2)n1 [Example 26, N-(3-(1H-imidazol-1-yl)propyl)-6-(2-methoxyphenyl)-2-(pyridin-4-yl)pyrimidin-4-amine]
IC50: 8.18 µM
Ki: 0.83 µM

COc1cccc(-c2cc(NCCCn3ccnc3)nc(-c3ccncc3)n2)c1 [Example 27, N-(3-(1H-imidazol-1-yl)propyl)-6-(3-methoxyphenyl)-2-(pyridin-4-yl)pyrimidin-4-amine]
IC50: 19 µM

COc1ccccc1-c1cc(NCCCn2cncc2C)nc(-c2ccncc2)n1 [Example 28, 6-(2-Methoxyphenyl)-N-(3-(5-methyl-1H-imidazol-1-yl)propyl)-2-(pyridin-4-yl)pyrimidin-4-amine]
IC50: 1.09 µM
Ki: 0.281 µM

c1ccc(-c2nc(Nc3ccc4nc[nH]c4c3)cc(-c3ccc4ncccc4c3)n2)cc1 [Example 30, N-(2-phenyl-6-(quinolin-6-yl)pyrimidin-4-yl)-3H-benzo[d]imidazol-5-amine]
IC50: 100 µM

Cc1nc(NCCCn2ccnc2)cc(-c2ccc3ncccc3c2)n1 [Example 31, N-(3-(1H-imidazol-1-yl)propyl)-2-methyl-6-(quinolin-6-yl)pyrimidin-4-amine]
IC50: 31.4 µM
Ki: 3.56 µM

c1ccc(C2CC2c2cc(NCCCn3ccnc3)nc(-c3ccncc3)n2)cc1 (stereo not drawn) [Example 33, N-(3-(1H-imidazol-1-yl)propyl)-6-(2-phenylcyclopropyl)-2-(pyridin-4-yl)-pyrimidin-4-amine]
IC50: 26.5 µM
Ki: 3.06 µM

Cc1nc(NCCCn2ccnc2)cc(C2Cc3ccccc3C2)n1 [Example 34, N-(3-(1H-imidazol-1-yl)propyl)-6-(2,3-dihydro-1H-inden-2-yl)-2-methyl-pyrimidin-4-amine]
IC50: 48.3 µM
Ki: 6.82 µM

c1ccc2c(c1)CC(c1cc(NCCCn3ccnc3)nc(-c3ccncc3)n1)C2 [Example 36, N-(3-(1H-imidazol-1-yl)propyl)-6-(2,3-dihydro-1H-inden-2-yl)-2-(pyridin-4-yl)-pyrimidin-4-amine]
IC50: 26.8 µM
Ki: 3.52 µM
